Results published in US6610516B1, “Cell culture process” (Genentech, Inc., priority 1999, dated 2003).

Experiments:
[1] = tested on: t-PA site occupancy at Asn-184; test: Type I/Type II t-PA assay (RP-HPLC) of supernatant from rht-PA-producing CHO cell cultures; format: cell-based, Chinese Hamster; conditions: for Decrease of t-PA site occupancy at 500 µM: Cricetulus griseus, CHO, 0.5 mM each; for Decrease of t-PA site occupancy at 500 µM / t-PA site-occupancy, effect of nucleotide sugar precursors: days 4-6 (FIG. 12); for t-PA site-occupancy, effect of nucleotide sugar precursors: increased availability; for t-PA site-occupancy, effect of further butyrate increase: 1.5 mM butyrate; for t-PA site occupancy compared to control with no cell-cycle inhibitor: 3-4 days, quinidine 90 μM, thymidine 250 μg/mL at inoculation (FIG. 9); for Increase of t-PA site-occupancy: 1, 10 or 100 nM hormone, day 7 (FIG. 13)
Experimental: Type I/Type II t-PA assay:
1. Thaw cell culture supernatant sample (If whole broth, spin out cells in centrifuge.)
2. Add 2 μl freshly thawed plasminogen to 400 μl of sample.
3. Incubate at 37° C. for 60 minutes.
4. Add 20 μl freshly-thawed 1 M DTT and 400 μl 8 M guanidine-HCl/50 mM TRIS/3.2 mM EDTA solution.
5. Incubate at 37° C. for 15 minutes.
6. Transfer to vial and load 250 μl for assay on HP 1090™ HPLC using the following conditions:
ZORBAX™ C8 column at 40° C.;
Monitoring of eluents by fluorescence (excitation at 275 nm, emission at 340 nm);
Running each sample with the following 70-minute method where eluent A is 0.1% trifluoroacetic acid (TFA) in water and eluent B is 0.1% TFA in acetonitrile:
5 to 35 min.—a linear gradient from 75% A to 60% A
45 min. to 70 min.—75% A to re-equilibrate the column
Type I/Type II fragments elute after approximately 25 minutes, and peak areas are integrated to determine relative quantities.
Recombinant ht-PA-producing CHO cells were carried in spinner flasks passaged every 3 or 4 days (at a density of 0.1% packed cell volume (PCV)) in selective medium (PS-20 basal medium supplemented with […] methotrexate, 10 mg/L recombinant human insulin (rh-insulin), 0.1 ml/L trace elements, and 0.05 ml/L lipid-ethanol). Sufficient culture was removed to seed 15 ml of medium at 0.2% PCV, and placed in a 50 ml sterile Falcon tube. The culture was centrifuged for 10 minutes at 700-1000 rpm and the supernatant was poured off. Upon addition of 15 ml of fresh selective medium, the culture was agitated gently to resuspend cells. Five ml of culture was placed in three T-25 flasks (25 cm^2 T-flasks). The caps were left loosened to allow equilibration with incubator atmosphere and the flasks were placed in a 33° C. or 31° C. incubator with 5% carbon dioxide. After 5 to 8 days of incubation, the cells were counted using a hemacytometer and/or by checking packed cell volume, and viability was checked using trypan blue. The culture was removed from the flasks, centrifuged for 10 minutes at 2000-2200 rpm, and the supernatant was assayed for rht-PA glycosylation. Alternatively to the T-25 flasks, the cells were cultured using 60-mm cell culture plates in triplicates.
The mini-fermentor experiments were performed under standard t-PA production conditions in fed-batch mode as noted herein in 5-liter stirred tank bioreactors (Applikon, Foster City, Calif.). The temperature was shifted to 33° C. or 31° C. on day 2 of the production phase.
(§1) The quantity of cells needed for a 0.2% packed cell volume seed density was centrifuged at approximately 700×g for 10 minutes, and resuspended in 25 cm^2 T-flasks in the appropriate fresh medium for each test case. The T-flasks were set up in triplicate with 5 mL in each flask and incubated for 3 to 4 days at 37° C. and 95% air 5% CO2. Sodium butyrate was added to a concentration of 0.375 mM, 0.75 mM, or 1.5 mM at the time of inoculation for the 25 cm^2 T-flasks. Cells were also cultured in spinner flasks at volumes of 100 ml with similar butyrate concentrations to the T-flask cases. For fermentor experiments, butyrate was added on the second day of the experiments. T-flask cultures were also carried out at 33° C. and 37° C. with no butyrate additions. […] T-PA site-occupancy was analyzed using the method of Example 1.
(§2) Cells were cultured as for the sodium butyrate experiment described in Example 2. Thymidine was dissolved in water and sterile filtered for a 33-36× stock solution. […] T-PA site-occupancy was analyzed using the method of Example 1.
All experiments were done in 60-mm culture dishes using the procedure described in Example 1 except that a Mn salt, Fe salt, nucleotide sugar precursor, or hormone was added to the growth medium during the growth phase, with Mn or Fe salt or nucleotide sugar precursor added on day 1.

[2] = tested on: CHO cells; test: Cell-cycle analysis (propidium iodide flow cytometry) of rht-PA-producing CHO cell cultures; format: cell-based, Chinese Hamster; conditions: T-flasks, 37° C., thymidine 250 μg/mL; for Cells in G0/G1 phase: 3-4 days, added at inoculation: quinidine 90 μM, control 53.91%; for Cells in S phase: control 34.37%
Text: As used herein, a “cell-cycle inhibitor that blocks cells in the G0/G1 phase of growth” is a molecule that causes cells to accumulate in the G0/G1 phase of growth. This can be determined by cell cycle analysis, i.e., uniform suspensions of nuclei are stained with propidium iodide (PI) using the detergent-trypsin method of Vindelov et al., Cytometry, 3: 323-327 (1983) to determine relative cellular DNA content by flow cytometric analysis. Events are gated using doublet discrimination to exclude doublets, and the data are modeled using ModFit LT Cell Cycle Analysis™ software (Verity Software House).
as §1, §2

[3] = target: fibrin; conditions: in vitro; cited from earlier work

With Nc1nc2c(ncn2[C@@H]2O[C@H](CO)[C@@H](O)[C@H]2O)c(=O)[nH]1 [guanosine] as the molecule, how does the Decrease of t-PA site occupancy at 500 µM ([1]; 60-mm dishes, 37° C.) read?
Its Decrease of t-PA site occupancy at 500 µM is roughly 2%.

For NCC(=O)O [glycine], which “t-PA site-occupancy, effect of nucleotide sugar precursors” value ([1]; 60-mm dishes, 37° C.) is on record?
The value was “did not improve site-occupancy”.

With CCCC(=O)[O-].[Na+] [sodium butyrate] as the molecule, how does the “Increase of Type I content compared to no butyrate” value ([1]; 0.75 mM butyrate, 60-mm culture plates (FIG. 6)) read?
Its value is “about 1%”.

What about the “t-PA site-occupancy, effect of further butyrate increase” value ([1]; 31° C., 60-mm culture plates (FIG. 6)) of the same molecule?
The value was “increased it”.

And the “t-PA site-occupancy, effect of further butyrate increase” value ([1]; 37° C. and 33° C., 60-mm culture plates (FIG. 6))?
Its value is “lowered site-occupancy”.

What about the “t-PA site-occupancy, effect of butyrate” value ([1]; 0.375 to 1.5 mM at inoculation, T-flasks, 37° C. (FIG. 5)) of the same molecule?
Its value is “increased t-PA site-occupancy”.

What about the “Type I content, effect of increasing butyrate from 0.75 to 1.5 mM” value ([1]; 5-liter bioreactors, days 5-7, 37° C. and 33° C. (FIG. 7)) of the same molecule?
Its value is “decreased the Type I content”.

What does the source list for Cc1cn([C@H]2C[C@H](O)[C@@H](CO)O2)c(=O)[nH]c1=O [Thymidine, thymidine]?
Cells in G0/G1 phase [2]: 32.58% at 84.60; Cells in G0/G1 phase ([2]; listed as thymidine): 33%; Cells in G2-M phase ([2]; quinidine 90 μM, control 11.72%): 10.09% at 165.36; Cells in S phase ([2]; quinidine 90 μM): 57.33%; t-PA site occupancy compared to control with no cell-cycle inhibitor ([1]; T-flasks, 37° C.): decreased site occupancy; t-PA site-occupancy, effect of nucleotide sugar precursors ([1]; 60-mm dishes, 37° C.): did not improve site-occupancy

For “t-PA: human tissue-type plasminogen activator, recombinant, produced in CHO cells; mixture of Type I and Type II glycoforms”, which “Kd of binding to fibrin” value [3] is on record?
Its value is “in the μM range”.

With O=c1ccn([C@@H]2O[C@H](CO)[C@@H](O)[C@H]2O)c(=O)[nH]1 [uridine] as the molecule, how does the Decrease of t-PA site occupancy at 500 µM ([1]; 60-mm dishes, 37° C.) read?
Its Decrease of t-PA site occupancy at 500 µM is roughly 2%.

With N[C@@H](Cc1cc(I)c(Oc2ccc(O)c(I)c2)c(I)c1)C(=O)O [tri-iodothyronine] as the molecule, how does the “Increase of t-PA site-occupancy” value ([1]; 60-mm dishes, 37° C.) read?
Its value is “about 2%”.

Which “t-PA site-occupancy, effect of nucleotide sugar precursors” value ([1]; 60-mm dishes, 37° C.) does the source give for O=c1[nH]cnc2nc[nH]c12 [hypoxanthine] here?
The value was “did not improve site-occupancy”.

Which results are given for C=C[C@H]1C[N@@]2CC[C@H]1C[C@@H]2[C@@H](O)c1ccnc2ccc(OC)cc12 [Quinidine, quinidine]?
Cells in G0/G1 phase [2]: 67.34% at 84.65; Cells in G0/G1 phase ([2]; listed as quinidine): 67%; Cells in S phase ([2]; quinidine 90 μM): 24.11%; t-PA site occupancy compared to control with no cell-cycle inhibitor ([1]; T-flasks, 37° C.): increased site occupancy

Which “Increase of t-PA Type I content (site-occupancy) over 3 nM control” value ([1]; MnCl2 10 nM-100 μM, 60-mm dishes, 37° C., days 4-6 (FIG. 10)) does the source give for [Cl][Mn][Cl] [manganese, MnCl2] here?
Its value is “about 2.5%”.

Which “Increase of t-PA site occupancy” value ([1]; 10-100 μM ferric citrate, 60-mm dishes, 37° C., days 4-6 (FIG. 11)) does the source give for ferric citrate here?
The value was “up to 4%”.

For N[C@@H](Cc1cc(I)c(Oc2cc(I)c(O)c(I)c2)c(I)c1)C(=O)O [thyroxine], which “Increase of t-PA site-occupancy” value ([1]; 60-mm dishes, 37° C.) is on record?
Its value is “about 2%”.
